Where a name gives a salt, the structure may show the parent alone. Read-outs that look alike come from different tables or passages of the source.
What was measured:
[1] = biological target: T1, Angiotensin-umwandelnde Enzym (ACE) (Oryctolagus cuniculus, UniProt P12822); test: In vitro ACE inhibition (ACEI), rabbit lung tissue preparation, hippuryl-histidyl-leucine substrate, method of Cheung and Cushman; type: biochemical, Kaninchen
T1 construct: Es wurde ein Kaninchen-Lungengewebe-Präparat; from tissue; host or cells: lung of adult male rabbits
T1 sequence (P12822 34-1310): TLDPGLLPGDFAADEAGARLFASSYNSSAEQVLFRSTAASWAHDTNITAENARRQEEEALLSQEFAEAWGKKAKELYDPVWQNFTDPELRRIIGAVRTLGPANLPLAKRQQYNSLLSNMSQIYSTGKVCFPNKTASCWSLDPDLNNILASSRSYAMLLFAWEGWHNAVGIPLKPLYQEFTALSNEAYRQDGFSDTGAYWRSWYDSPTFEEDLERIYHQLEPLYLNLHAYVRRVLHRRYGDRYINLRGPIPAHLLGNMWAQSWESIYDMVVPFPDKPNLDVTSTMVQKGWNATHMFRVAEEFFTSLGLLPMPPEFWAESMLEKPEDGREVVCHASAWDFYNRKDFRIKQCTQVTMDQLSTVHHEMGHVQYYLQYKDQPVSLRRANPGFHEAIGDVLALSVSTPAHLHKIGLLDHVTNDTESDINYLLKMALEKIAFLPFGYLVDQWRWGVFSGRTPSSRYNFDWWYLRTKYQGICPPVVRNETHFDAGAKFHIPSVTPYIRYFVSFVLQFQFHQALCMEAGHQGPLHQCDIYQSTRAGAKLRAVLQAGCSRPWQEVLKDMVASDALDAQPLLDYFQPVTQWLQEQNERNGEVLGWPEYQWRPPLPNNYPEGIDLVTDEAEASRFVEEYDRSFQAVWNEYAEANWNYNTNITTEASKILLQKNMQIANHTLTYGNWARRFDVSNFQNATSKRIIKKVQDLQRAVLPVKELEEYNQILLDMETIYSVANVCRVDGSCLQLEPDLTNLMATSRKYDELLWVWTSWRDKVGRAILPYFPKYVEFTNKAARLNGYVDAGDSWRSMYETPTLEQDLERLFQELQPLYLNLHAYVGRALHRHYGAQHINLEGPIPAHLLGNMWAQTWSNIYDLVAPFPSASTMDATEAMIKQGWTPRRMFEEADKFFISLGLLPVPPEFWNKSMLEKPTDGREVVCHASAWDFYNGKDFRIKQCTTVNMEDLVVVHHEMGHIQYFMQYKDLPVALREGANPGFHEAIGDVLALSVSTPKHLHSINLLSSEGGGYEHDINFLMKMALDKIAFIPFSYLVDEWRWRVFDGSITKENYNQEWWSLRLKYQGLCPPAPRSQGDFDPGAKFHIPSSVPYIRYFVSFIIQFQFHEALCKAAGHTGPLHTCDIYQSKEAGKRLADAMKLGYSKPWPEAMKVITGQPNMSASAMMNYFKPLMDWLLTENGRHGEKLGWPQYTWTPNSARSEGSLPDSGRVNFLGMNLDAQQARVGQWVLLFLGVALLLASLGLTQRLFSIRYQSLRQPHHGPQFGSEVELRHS
Source text: Die in-vitro-Hemmung des Enzyms, welches das Angiotensin umwandelt, kann bei den Verbindungen dieser Erfindung analog zu Biochim. Biophys. Acta 293, 451 (1973) nachgewiesen werden. Gemäß dieser Methode werden die genannten Verbindungen in ungefähr 1 mMol-Konzentrationen in Phosphatpuffer aufgelöst. Zu 100 Mikroliter von Lösungen der Testverbindung in Phosphatpuffer, welche man auf die gewünschte Konzentration verdünnt, gibt man zuerst 100 Mikroliter von 5 millimolarem Hippuryl-histidylleucin in Phosphatpuffer und dann 50 µl des Angiotensin-umwandelnden Enzyms. Dieses Enzym wird aus Lungen von erwachsenen männlichen Kaninchen in Tris-Puffer, der Kalium- und Magnesiumchlorid und auch Rohrzucker enthält, hergestellt. Die genannten Lösungen werden 30 Minuten bei 37 °C inkubiert, und die weitere Reaktion wird durch Hinzufügen von 0,75 ml einer 0,6-normalen wäßrigen Natriumhydroxidlösung gestoppt. Dann gibt man bei Zimmertemperatur 100 Mikroliter einer 0,2 %-igen Lösung von o-Phthalaldehyd in Methanol und nach 10 Minuten 100 Mikroliter 6n-Chlorwasserstoffsäure dazu. Diese Proben werden in einem Spektrophotometer bei 360 nm mit Wasser verglichen, und ihre optische Dichte wird bestimmt. Diese Werte werden durch einen Konversionsfaktor einer Standard-Kurve angepaßt, wobei man die während der genannten Inkubation von 30 Minuten gebildete Histidyl-leucin-Menge in Nanomolen erhält. Die Ergebnisse werden, um den IC50-Wert zu bestimmen, gegenüber den Wirkstoff-Konzentrationen graphisch als Kurve dargestellt. Der IC50-Wert bedeutet diejenige WirkstoffKonzentration, welche die Hälfte der Aktivität einer Kontrollprobe, die keinen Wirkstoff enthält, ergibt. Als Illustration der Erfindung sei auf das « höher schmelzende 1-Carboxymethyl-3-(1-carboxy-3-phenylpro- pylamino)-2,3,4,5-tetrahydro-1H-[1]-benzazepin-2-on des Beispiels 9 und auf das entsprechende S,S-Enantiomere des Beispiels 19 hingewiesen, welche einen lC50-Wert von 5,2 × 10^-9 M bzw. 1,7 × 10^-9 M aufweisen. Das entsprechende « niedriger schmelzende » 1-Carboxymethyl-3-(1-carboxy-3-phenylpropy- iamino)-2,3,4,5-tetrahydro-1H-[1] benzazepin-2-on des Beispiels 8 zeigt einen lC50-Wert von 5,8 ×10^-8 M.
Die Prüfung der Wirkung von Verbindungen ist gemäss den Methoden für die Auswertung der Hemmung des Enzyms, welches das Angiotensin umwandelt [angiotensin converting enzyme = ACE] durchgeführt worden. In der biochemischen Beurteilung der in vitro ACE-Hemmung [ACE inhibition = A-CEI] wird die Aktivität einer Verbindung im Kaninchen-Lungengewebe bestimmt.
Es wurde ein Kaninchen-Lungengewebe-Präparat [Das and Saffer, J. Biol. Chem. 250 : 6762 (1975) für die Bestimmung von ACE nach der Methode von Cheung und Cushman [Cheung and Cushman, Biochim. Biophys. Acta 293, 451 (1973)] verwendet. In dieser Methode wird die Menge des Histidyl-leucins. welche aus einem synthetischen Substrat innerhalb einer Inkubation von 30 Minuten bei 37° freigesetzt wird, spektrophotometrisch bestimmt. Die lC50-Werte der ACE-Hemmung werden dann graphisch berechnet. Der lC50-Wert ist die Konzentration (in Mol) der getesteten Verbindung, welche die in Abwesenheit der Testsubstanz entstehende Menge des Histidyl-leucins um 50 % herabsetzt.

[2] = tested on: spontan hypertensiven Ratten; test: Antihypertensive effect in spontaneously hypertensive rats, indirect measurement of systolic blood pressure (tail cuff), oral dosing; type: in vivo
Source text: Die in vivo blutdrucksenkende Wirkung wird entweder direkt mit einem Katheter, der in die femorale Arterie des Versuchstieres eingeführt ist, oder indirekt durch Sphygmomanometrie am Rattenschwanz, und einem Übertragungsinstrument registriert. Der Blutdruck wird vor und nach der Verabreichung des Wirkstoffes in mm Hg bestimmt.
So sind die antihypertensiven Wirkungen in spontan hypertensiven Ratten durch indirekte Messung des systolischen Blutdrucks nachweisbar. Nicht narkotisierte Ratten werden einzeln in Käfigen, welche ihre Bewegung einschränken, in eine leicht geheizte Kammer gebracht. Ein Puls-Sensor wird innerhalb einer aufblasbaren Manschette am Schwanz jeder Ratte angebracht. Die Manschette wird aufgeblasen, um die Schwanz-Arterie zu schließen. Der Druck in der Manschette wird kontinuierlich reduziert, und der systolische Druck entspricht demjenigen Druck in der Manschette, bei welchem die Pulswellen wieder auftreten. Nach der Registrierung von Kontrollwerten des Blutdrucks und der Herzfrequenz werden die Testverbindungen peroral einmal täglich an vier aufeinanderfolgenden Tagen verabreicht. Zusätzliche Blutdruckmessungen werden üblicherweise nach 2,0, 4,0 und 23,5 Stunden nach jeder täglichen Dosis vorgenommen. Die Werte werden mit denjenigen von Ratten, welche lediglich mit der Trägersubstanz behandelt worden sind, verglichen. […]

[3] = tested on: durch Angiotensin I (AI) hervorgerufene Blutdrucksteigerung; test: Inhibition of the angiotensin I (AI) induced blood pressure rise after intravenous administration of the test compound; type: in vivo, Ratten; conditions: for Hemmung der Blutdrucksteigerung nach Angiotensin I-Reizung: 1 mg/kg i.v., anaesthetised male normotensive rats, during 30 min after administration, 333 ng/kg angiotensin I; for % AI Hemmung: rat, mean inhibition within 30 min after administration
Source text: Die Verbindungen der Erfindung zeigen nach intravenöser oder oraler Verabreichung eine hemmende Wirkung gegen die durch Angiotensin I hervorgerufene Blutdrucksteigerung auch an normotensiven Ratten. Das Angiotensin 1 wird durch das genannte Umwandlungsenzym zu der stark blutdrucksteigernden Substanz Angiotensin II hydrolysiert. Die Hemmung des genannten Enzyms blockiert die Bildung von Angiotensin II aus Angiotensin I. In dieser Weise wird die durch Angiotensin I provozierte Blutdrucksteigerung abgeschwächt.
Der entsprechende in-vivo-Test mit den intravenös verabreichten Verbindungen wird mit männlichen normotensiven Ratten, welche mit dem Natriumsalz der 5-Äthyl-5-(1-methylpropyl)-2-thiobarbitursäure narkotisiert sind, durchgeführt. Eine femorale Arterie und eine Wadenvene werden mit je einer Hohlnadel für die direkte Messung des Blutdrucks und für die intravenöse Verabreichung des Angiotensins I und einer erfindungsgemäßen Verbindung versehen. Nach der Stabilisierung des basalen Blutdrucks wird die Druckänderung nach drei, in 5-minütigen Intervallen, i. v. durchgeführten Reizungen mit 333 ng/kg Angiotensin I bestimmt. Solche Druckänderungen werden wieder nach 5,10,15, 30 und 60 Minuten nach intravenöser Verabreichung der zu prüfenden Verbindung bestimmt. Die letztgenannten Druckänderungen werden mit den Anfangswerten verglichen. Jede festgestellte Abnahme vom Ansprechen des Blutdrucks ist ein Hinweis auf die Hemmung des Enzyms, welches das Angiotensin I umwandelt. Als Illustration der Erfindung sei auf das « höher schmelzende » 1-Carboxymethyl-3-(1-äthoxycarbonyl-3-phenylpropylamino)-2,3,4,5-tetrahydro-1H-[1] benzazepin-2-on des Beispiels 1 und auf das entsprechende S,S-Enantiomere des Beispiels 12 hingewiesen. Diese hemmen vollständig die Blutdrucksteigerung nach Angiotensin I-Reizung während 30 Minuten nach intravenöser Verabreichung einer Dosis von 1 mg/kg pro Substanz.
In der in vivo Prüfungsmethode wird zuerst durch Verabreichung des Angiotensins I (AI) an das Versuchstier eine Blutdrucksteigerung hervorgerufen. Es wird dann die Hemmung der einzelnen Verbindungen auf diese Blutdrucksteigerung gemessen.
11. Methode der Hemmung der durch Angiotensin I (AI) hervorgerufenen Blutdrucksteigerung, durch intravenöse Verabreichung der Testverbindung (% AI-Hemmung)
In diesen Untersuchungen wird wie oben beschrieben, je ein Katheter in eine femurale Arterie und in eine Wadenvene der Ratte eingeführt.
Der arterielle Druck wurde von dem Arterienkatheter aus registriert, während man Angiotensin I (AI) und die einzelnen Testverbindungen durch den Venenkatheter injiziert hatte. Die Hemmung der durch Angiotensin I verursachten Blutdrucksteigerung ist als prozentuelle Abnahme des vor der Behandlung erhaltenen Kontrollwertes der Blutdrucksteigerung ausgedrückt und in der Tabelle als Durchschnittswert der Hemmung innerhalb 30 Minuten nach Verabreichung der Testsubstanz angegeben. (Siehe Tabelle Seite 41 f.)

[4] = rabbit lung tissue preparation, 30 min incubation at 37°, read-out: In vitro ACEI IC50
[5] = ACE from rabbit lung, 30 min at 37 °C, read-out: IC50-Wert

## CCOC(=O)[C@H](CCc1ccccc1)N[C@H]1CCc2ccccc2N(CC(=O)O)C1=O (racemic) [Beispiel 1, 1-Carboxymethyl-3-(1-äthoxycarbonyl-3-phenylpropylamino)-2,3,4,5-tetrahydro-1H-[1] benzazepin-2-on]
[1]; [4]
  IC50: 600 nM
[2]; 3 mg/kg p. o., once daily for four days, average, measured 2 and 4 h after dosing on the last two days
  Blutdruck gesenkt (antihypertensiver Effekt): 40 mm Hg
[3]
  Hemmung der Blutdrucksteigerung nach Angiotensin I-Reizung: vollständig
[3]; i.v. Dosis 0.1 mg/kg
  % AI Hemmung: 50%
[3]; i.v. Dosis 1.0 mg/kg
  % AI Hemmung: 100%
[3]; i.v. Dosis 10 mg/kg
  % AI Hemmung: 100%

## O=C(O)CN1C(=O)C(NC(CCc2ccccc2)C(=O)O)CCc2ccccc21 (single isomer, unassigned) [Beispiel 8, 1-Carboxymethyl-3-(1-carboxy-3-phenylpropylamino)-2,3,4,5-tetrahydro-1H-[1] benzazepin-2-on]
[1]; [5]
  IC50: 58 nM

## O=C(O)CN1C(=O)C(NC(CCc2ccccc2)C(=O)O)CCc2ccccc21 (single isomer, unassigned) [Beispiel 9, 1-Carboxymethyl-3-(1-carboxy-3-phenylpropylamino)-2,3,4,5-tetrahydro-1H-[1]-benzazepin-2-on]
[1]; [5]
  IC50: 5.2 nM
[1]; [4]
  IC50: 5 nM
[3]; i.v. Dosis 0.03 mg/kg
  % AI Hemmung: 40%
[3]; i.v. Dosis 0.1 mg/kg
  % AI Hemmung: 80%
[3]; i.v. Dosis 0.3 mg/kg
  % AI Hemmung: 93%

## CCOC(=O)[C@H](CCc1ccccc1)N[C@H]1CCc2ccccc2N(CC(=O)O)C1=O [12 HCl Salz]
[1]; [4]
  IC50: 400 nM
[3]; i.v. Dosis 0.03 mg/kg
  % AI Hemmung: 29%
[3]; i.v. Dosis 0.06 mg/kg
  % AI Hemmung: 74%
[3]; i.v. Dosis 0.1 mg/kg
  % AI Hemmung: 82%
[3]; i.v. Dosis 0.3 mg/kg
  % AI Hemmung: 95%
[3]; i.v. Dosis 1.0 mg/kg
  % AI Hemmung: 100%

## CCOC(=O)[C@@H](CCc1ccccc1)N[C@H]1CCc2ccccc2N(CC(=O)O)C1=O [Beispiel 5, 1-Carboxymethyl-3-(1-äthoxycarbonyl-3-phenylpropylamino)-2,3,4,5,-tetrahydro-1H-[1] benzazepin-2-on]
[1]; [4]
  IC50: 200 nM
[3]; i.v. Dosis 0.1 mg/kg
  % AI Hemmung: 37%

## CCOC(=O)[C@H](CCc1ccccc1)N[C@H]1CCc2ccccc2N(CC(=O)O)C1=O [Beispiel 12, 1-Carboxymethyl-3S-(1S-äthoxycarbonyl-3-phenylpropylamino)-2,3,4,5-tetrahydro-1H-[1] benzazepin-2-on]
[2]; peroral dose of 1 mg/kg
  Blutdruck gesenkt (antihypertensiver Effekt): 30 mm Hg
[3]
  Hemmung der Blutdrucksteigerung nach Angiotensin I-Reizung: vollständig

## O=C(O)CN1C(=O)[C@@H](N[C@@H](CCc2ccccc2)C(=O)O)CCc2ccccc21 [Beispiel 19, 1-Carboxymethyl-3S-(1S-carboxy-3-phenylpropylamino)-2,3,4,5-tetrahydro-1H-[1] benzazepin-2-on]
[1]; [5]
  IC50: 1.7 nM
[1]; [4]
  IC50: 2 nM
[3]; i.v. Dosis 0.007 mg/kg
  % AI Hemmung: 14%
[3]; i.v. Dosis 0.01 mg/kg
  % AI Hemmung: 28%
[3]; i.v. Dosis 0.02 mg/kg
  % AI Hemmung: 69%
[3]; i.v. Dosis 0.03 mg/kg
  % AI Hemmung: 70%
[3]; i.v. Dosis 0.06 mg/kg
  % AI Hemmung: 84%
[3]; i.v. Dosis 0.1 mg/kg
  % AI Hemmung: 93%

Reference: patent publication EP0072352B1, “Benzazepin-2-ones, process for their preparation, pharmaceutical preparations containing these compounds and the compounds for therapeutical use” (CIBA-GEIGY AG, priority 1981, dated 1983)
